Test results taken from PMC7799360, “Reprogramming immunosuppressive myeloid cells facilitates immunotherapy for colorectal cancer” (EMBO Molecular Medicine, 2020).

Experiments:
ADRA2A = target: T1, ADRA2A (Homo sapiens, UniProt P08913); assay: GPCR calcium flux assay; assay type: cell-based
T1 construct: Pharmaron (Beijing, China) performed the assay

HTR1B = HTR1B (Homo sapiens, UniProt P28222); assay: LANCE Ultra cAMP assay
human EP2 = target: T2, human EP2 (Homo sapiens, UniProt P43116); assay: PGE2-induced calcium flux assay in CHO-Gα16 cells; assay type: cell-based
T2 construct: host or cells: CHO-Gα16

DRD1 = target: T3, DRD1 (Homo sapiens, UniProt P21728); assay: GPCR calcium flux assay; assay type: cell-based
T3 construct: Pharmaron (Beijing, China), contract laboratory

CHRM1 = target: T4, CHRM1 (Homo sapiens, UniProt P11229); assay: GPCR calcium flux assay; assay type: cell-based
T4 construct: Pharmaron (Beijing, China), contract laboratory

mouse bone marrow cells = assay: GM-CSF/IL-6-induced bone marrow MDSC differentiation assay; assay type: cell-based; conditions: GM-CSF/IL-6/PGE2, 0.1-10 μM TP-16, 6 days
Procedure: Single‐cell suspensions of mouse BM cells were prepared by filtering femurs and tibias of 6‐week‐old female BALB/c mice through 40‐μm cell strainers (Falcon). These suspensions were treated with red blood cell lysis buffer and replated in conditioned medium. Monocyte differentiation, MDSC induction, and macrophage polarization were analyzed by FACS analysis (BD Biosciences) with FlowJo software.
For the MDSC induction assay, purified BM cells were cultured in RPMI1640 medium stimulated with recombinant mouse GM‐CSF (40 ng/ml, Peprotech) and IL‐6 (40 ng/ml, Peprotech) for 6 days to generate bone marrow‐derived MDSCs (Svoronos et al., 2017); the medium was refreshed every 3 days. Vehicle or PGE2 (10 nM) ± TP‐16 was added simultaneously on day 0 for FACS analysis of BM‐derived MDSCs. For quantitative PCR (qPCR) analysis of MDSCs, differentiated MDSCs were treated with vehicle or PGE2 (10 nM) ± TP‐16 for 12 h.

human EP3 = human EP3 (Homo sapiens, UniProt P43115); assay: PGE2-induced calcium flux assay in CHO-Gα16 cells; assay type: cell-based
MC38 tumors = assay: MC38 colorectal cancer model in C57BL/6 mice; assay type: in vivo, mouse; conditions: MC38, 75 mg/kg p.o. daily
Procedure: Syngeneic mouse tumor‐bearing models were established as described previously (Tan et al., 2018). Tumor cells (5 × 10^5 ‐ 2 × 10^6) were suspended in 100 μl PBS and implanted subcutaneously into the flank of mice. Mice were randomized into different treatment groups when tumor volumes reached 100‐200 mm^3. V = L×W^2 × 0.52, where L is the longest diameter, and W is the shortest diameter. Tumor size and body weight were recorded every second or third day. Mouse survival was analyzed using the Kaplan–Meier method.
Single agent or combination treatment was designed as follows: TP‐16 (37.5, 75, 150 mg/kg) or celecoxib (100 mg/kg) was formulated in 0.5% carboxymethylcellulose sodium (CMC‐Na, Sangon Biotech, Shanghai, China) and administered via oral gavage daily. In vivo anti‐PD1 antibody (clone RMP1‐14, BioXCell, West Lebanon, NH, USA) and rat IgG2a isotype control (clone 2A3, BioXCell) were diluted in sterile PBS and administered intraperitoneally at a dose of 50 μg twice weekly.

ADRB1 = target: T5, ADRB1 (Homo sapiens, UniProt P08588); assay: GPCR calcium flux assay; assay type: cell-based
T5 construct: Pharmaron (Beijing, China) performed the assay
T5 sequence (P08588 whole entry, species assumed): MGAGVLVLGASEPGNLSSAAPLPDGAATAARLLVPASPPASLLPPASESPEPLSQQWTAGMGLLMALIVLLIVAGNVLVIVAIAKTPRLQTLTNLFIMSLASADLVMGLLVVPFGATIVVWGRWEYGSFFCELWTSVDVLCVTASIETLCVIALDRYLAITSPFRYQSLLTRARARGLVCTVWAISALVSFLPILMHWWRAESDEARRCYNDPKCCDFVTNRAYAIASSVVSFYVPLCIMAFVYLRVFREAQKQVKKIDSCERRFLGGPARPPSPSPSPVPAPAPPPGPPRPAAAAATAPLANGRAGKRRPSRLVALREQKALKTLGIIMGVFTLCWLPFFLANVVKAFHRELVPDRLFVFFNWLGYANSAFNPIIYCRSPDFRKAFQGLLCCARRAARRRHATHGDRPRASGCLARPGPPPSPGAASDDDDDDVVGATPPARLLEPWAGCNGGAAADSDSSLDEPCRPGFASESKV

T4 sequence (P11229 whole entry, species assumed): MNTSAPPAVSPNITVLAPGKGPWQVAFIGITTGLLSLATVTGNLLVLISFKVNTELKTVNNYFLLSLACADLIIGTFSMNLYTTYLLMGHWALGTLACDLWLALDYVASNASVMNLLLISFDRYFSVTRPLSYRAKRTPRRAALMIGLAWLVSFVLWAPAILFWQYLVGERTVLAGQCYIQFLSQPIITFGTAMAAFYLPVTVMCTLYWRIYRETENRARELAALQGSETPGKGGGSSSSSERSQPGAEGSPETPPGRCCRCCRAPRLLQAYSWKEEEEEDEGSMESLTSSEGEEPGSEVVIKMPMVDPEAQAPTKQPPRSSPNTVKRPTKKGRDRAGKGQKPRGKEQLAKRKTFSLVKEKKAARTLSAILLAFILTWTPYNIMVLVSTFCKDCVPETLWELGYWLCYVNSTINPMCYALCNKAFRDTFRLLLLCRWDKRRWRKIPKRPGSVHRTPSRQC
human EP3, sequence (P43115 1-359 limits assumed): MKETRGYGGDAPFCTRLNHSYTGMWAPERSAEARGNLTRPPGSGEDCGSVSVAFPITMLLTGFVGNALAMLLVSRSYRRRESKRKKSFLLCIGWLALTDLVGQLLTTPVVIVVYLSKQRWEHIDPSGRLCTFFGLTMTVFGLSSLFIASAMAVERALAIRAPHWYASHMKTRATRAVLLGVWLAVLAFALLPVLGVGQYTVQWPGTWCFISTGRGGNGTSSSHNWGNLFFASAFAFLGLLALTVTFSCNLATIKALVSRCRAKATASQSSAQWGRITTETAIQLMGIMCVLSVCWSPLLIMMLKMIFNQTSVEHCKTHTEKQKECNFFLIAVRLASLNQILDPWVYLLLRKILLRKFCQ
T1 sequence (P08913 whole entry, species assumed): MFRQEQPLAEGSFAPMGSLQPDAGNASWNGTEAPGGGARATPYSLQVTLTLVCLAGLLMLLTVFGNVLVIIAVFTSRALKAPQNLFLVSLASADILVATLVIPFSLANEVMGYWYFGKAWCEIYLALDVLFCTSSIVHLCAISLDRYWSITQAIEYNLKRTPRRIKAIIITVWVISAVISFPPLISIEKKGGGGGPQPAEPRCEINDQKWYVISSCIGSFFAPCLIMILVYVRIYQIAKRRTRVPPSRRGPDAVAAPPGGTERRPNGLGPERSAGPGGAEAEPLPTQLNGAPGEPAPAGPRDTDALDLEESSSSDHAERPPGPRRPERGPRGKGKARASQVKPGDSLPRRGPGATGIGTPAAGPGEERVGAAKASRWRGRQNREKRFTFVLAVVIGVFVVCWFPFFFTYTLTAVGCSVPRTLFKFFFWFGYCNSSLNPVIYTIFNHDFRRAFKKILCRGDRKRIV
T3 sequence (P21728 whole entry, species assumed): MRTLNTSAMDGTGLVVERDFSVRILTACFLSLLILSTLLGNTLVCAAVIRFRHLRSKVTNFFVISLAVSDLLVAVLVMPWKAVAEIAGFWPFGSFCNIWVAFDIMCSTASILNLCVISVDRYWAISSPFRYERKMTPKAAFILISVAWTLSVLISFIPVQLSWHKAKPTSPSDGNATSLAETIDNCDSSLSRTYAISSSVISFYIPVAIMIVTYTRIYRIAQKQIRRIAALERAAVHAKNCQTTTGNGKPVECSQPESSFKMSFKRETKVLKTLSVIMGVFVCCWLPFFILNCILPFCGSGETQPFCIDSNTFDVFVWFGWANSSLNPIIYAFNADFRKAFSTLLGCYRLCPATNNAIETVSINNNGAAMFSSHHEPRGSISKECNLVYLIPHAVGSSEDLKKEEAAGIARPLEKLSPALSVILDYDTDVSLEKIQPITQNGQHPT
T2 sequence (P43116 whole entry): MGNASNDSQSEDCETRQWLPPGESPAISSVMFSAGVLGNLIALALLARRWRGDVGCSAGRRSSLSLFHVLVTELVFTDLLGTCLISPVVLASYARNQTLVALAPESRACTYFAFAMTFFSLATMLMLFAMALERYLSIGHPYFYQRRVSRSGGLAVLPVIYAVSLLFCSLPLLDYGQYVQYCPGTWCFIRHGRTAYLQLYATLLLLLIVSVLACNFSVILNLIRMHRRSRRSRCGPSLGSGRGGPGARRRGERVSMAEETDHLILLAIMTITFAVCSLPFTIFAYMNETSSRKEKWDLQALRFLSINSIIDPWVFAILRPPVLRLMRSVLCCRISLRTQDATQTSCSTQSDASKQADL
HTR1B, sequence (P28222 whole entry): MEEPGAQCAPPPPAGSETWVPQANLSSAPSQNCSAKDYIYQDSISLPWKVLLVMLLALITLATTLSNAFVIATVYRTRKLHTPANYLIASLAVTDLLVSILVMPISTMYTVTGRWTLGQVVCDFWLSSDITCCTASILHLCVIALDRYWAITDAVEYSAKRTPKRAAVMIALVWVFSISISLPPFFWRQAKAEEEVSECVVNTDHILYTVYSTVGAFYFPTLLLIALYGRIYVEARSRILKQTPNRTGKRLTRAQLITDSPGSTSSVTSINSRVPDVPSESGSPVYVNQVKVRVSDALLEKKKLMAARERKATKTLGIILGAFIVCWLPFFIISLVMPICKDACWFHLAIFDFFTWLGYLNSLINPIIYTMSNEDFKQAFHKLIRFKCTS

**Q.** Which IC50 (ADRA2A) does the source give for C[C@H](NC(=O)c1c(Cc2ccc(F)cc2)sc2c1CCOC2)c1ccc(C(=O)O)cc1 [TP-16] here?
**A.** > 10 µM

**Q.** What about the IC50 (HTR1B) of the same compound?
**A.** > 10 µM

**Q.** And the IC50 (human EP2)?
**A.** > 10 µM

**Q.** And the IC50 (DRD1)?
**A.** > 10 µM

**Q.** What about the IC50 (CHRM1) of the same compound?
**A.** > 10 µM

**Q.** And the “PGE2-dependent expansion of both mMDSCs and PMN-MDSCs” value (mouse bone marrow cells)?
**A.** significantly inhibited

**Q.** What about the IC50 (human EP3) of the same compound?
**A.** > 10 µM

**Q.** And the “%TGI” value (MC38 tumors)?
**A.** 50.6%

**Q.** And the IC50 (ADRB1)?
**A.** > 10 µM
